# Experimental data published in BindingDB's records for PubMed 37683364 (Institute of Respiratory Health).
# Target: RAC-alpha serine/threonine-protein kinase (Homo sapiens, UniProt P31749)
# Experiment: Inhibition of AKT phosphorylation in human OVCAR-8 cells assessed as reduction in pAKT level incubated for 24 hrs by Western blot analysis
# Chain of RAC-alpha serine/threonine-protein kinase (P31749 whole entry): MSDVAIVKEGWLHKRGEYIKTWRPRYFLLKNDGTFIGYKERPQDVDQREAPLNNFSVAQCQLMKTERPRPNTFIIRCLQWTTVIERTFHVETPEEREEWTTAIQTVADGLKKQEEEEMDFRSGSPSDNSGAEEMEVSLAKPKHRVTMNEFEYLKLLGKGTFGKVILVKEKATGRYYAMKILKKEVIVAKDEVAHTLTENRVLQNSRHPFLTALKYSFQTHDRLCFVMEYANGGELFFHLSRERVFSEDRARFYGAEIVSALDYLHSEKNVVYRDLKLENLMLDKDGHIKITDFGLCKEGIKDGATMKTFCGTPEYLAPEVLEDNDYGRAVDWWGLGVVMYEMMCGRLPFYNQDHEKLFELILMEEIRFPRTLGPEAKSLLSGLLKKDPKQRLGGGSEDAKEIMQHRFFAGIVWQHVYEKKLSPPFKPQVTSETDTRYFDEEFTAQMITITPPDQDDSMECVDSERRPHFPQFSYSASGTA
row,SMILES,IC50
1,O=C1NC(=O)C(Cc2ccc3nccc(-c4ccncc4)c3c2)S1 (centres undefined),40 nM
2,Nc1ncc(-c2ccc3nccc(-c4ccncc4)c3c2)cc1S(N)(=O)=O,49 nM
3,c1cc(-c2ccnc3ccc(-c4cnc5[nH]ncc5c4)cc23)ccn1,76 nM
4,O=S(=O)(Nc1cncc(-c2ccc3nccc(-c4ccncc4)c3c2)c1)c1ccccc1F,7 nM
